The source of these data is publication PMC5827430, “Oxidation of the FAD cofactor to the 8-formyl-derivative in human electron-transferring flavoprotein” (The Journal of Biological Chemistry, 2018).

Where a chain is given by its changes, count along the chain named.

In experiment [1] the target is T1, hETF (human electron-transferring flavoprotein) (Homo sapiens, UniProt P13804+P38117, P38117:E165A).
T1 construct: gene ETFA; mature heterodimer from E. coli BL21(DE3), pET-28a+ operon; alpha from Gln-20; N-terminal His6 on beta (tag kept)
T1 sequence (P13804 20-333): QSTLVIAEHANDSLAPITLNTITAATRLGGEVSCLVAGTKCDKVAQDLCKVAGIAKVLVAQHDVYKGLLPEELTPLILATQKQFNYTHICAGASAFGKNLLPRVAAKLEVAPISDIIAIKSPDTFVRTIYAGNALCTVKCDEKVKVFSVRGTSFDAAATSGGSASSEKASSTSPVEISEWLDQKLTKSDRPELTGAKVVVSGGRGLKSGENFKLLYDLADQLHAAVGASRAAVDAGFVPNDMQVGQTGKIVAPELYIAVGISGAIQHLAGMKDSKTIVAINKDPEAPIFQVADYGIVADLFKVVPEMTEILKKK
T1 sequence (P38117 1-255 E165A): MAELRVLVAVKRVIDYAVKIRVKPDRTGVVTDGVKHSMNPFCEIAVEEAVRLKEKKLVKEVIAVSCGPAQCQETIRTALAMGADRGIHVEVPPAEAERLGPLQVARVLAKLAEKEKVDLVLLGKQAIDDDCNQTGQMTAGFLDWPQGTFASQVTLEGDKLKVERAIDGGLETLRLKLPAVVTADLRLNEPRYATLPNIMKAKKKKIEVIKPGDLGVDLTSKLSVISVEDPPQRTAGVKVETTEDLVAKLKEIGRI
Nature of the experiment: UV-visible absorption; steady-state kinetics of the FAD form. The following applies: purified at pH 7.0.

Experiment [2] concerns the target T2, hETF (human electron-transferring flavoprotein) (Homo sapiens, UniProt P13804+P38117, P13804:H286A).
T2 construct: gene ETFA; mature heterodimer from E. coli BL21(DE3), pET-28a+ operon; alpha from Gln-20; N-terminal His6 on beta (tag kept)
T2 sequence (P13804 20-333 H286A): T1 sequence (P13804 20-333) with H267A
T2 sequence (P38117 1-255): T1 sequence (P38117 1-255 E165A) with A165E
The experiment is described as follows: HPLC analysis of extracted cofactor. The note with it: purified at pH 7.0. It is filed as binding.

On to `Cc1cc2nc3c(=O)[nH]c(=O)nc-3n(C[C@H](O)[C@H](O)[C@H](O)COP(=O)(O)OP(=O)(O)OC[C@H]3O[C@@H](n4cnc5c(N)ncnc54)[C@H](O)[C@@H]3O)c2cc1C` [FAD], for which the “UV-visible absorption; steady-state kinetics of the FAD form” value in experiment [1] is on record as “FAD formylation was absent in the freshly purified variant βE165A”. The “HPLC analysis of extracted cofactor” value in experiment [2] was “the FAD cofactor was bound weakly to the αH286A variant”.
